Data taken from US20130029991A1, “New Phenylsulfamoyl Benzamide Derivatives as Bradykinin Antagonists” (priority 2006, published 2013).
pIC50, pKi: −log10 of the molar value. Structures can show the parent of a compound that is named as a salt.

How the values were obtained:
[1] = target: T1, recombinant human B1 receptors (Homo sapiens, UniProt P46663); assay: Functional assay: antagonist potency by cytosolic calcium measurement (fluo-4, plate reader fluorimeter) in CHO-B1 cells; assay type: cell-based; settings: CHO-B1 cells, inhibition of LysDABK (EC80)-evoked [Ca2+]i elevation; read-out: B1 func.
T1 construct: host or cells: CHO (CHO-B1)
T1 sequence (P46663 1-353): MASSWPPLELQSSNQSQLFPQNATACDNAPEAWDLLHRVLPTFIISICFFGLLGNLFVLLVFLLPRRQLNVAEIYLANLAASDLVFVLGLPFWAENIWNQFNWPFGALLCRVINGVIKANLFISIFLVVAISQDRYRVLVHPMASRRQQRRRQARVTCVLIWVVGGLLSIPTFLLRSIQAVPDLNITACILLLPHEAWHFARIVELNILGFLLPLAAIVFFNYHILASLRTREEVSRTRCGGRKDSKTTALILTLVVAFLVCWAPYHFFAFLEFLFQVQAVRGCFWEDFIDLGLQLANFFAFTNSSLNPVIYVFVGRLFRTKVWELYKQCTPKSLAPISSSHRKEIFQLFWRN
Protocol: Assessment of Antagonist Potency at B1 and B2 Receptors In Vitro by Measurement of Cytosolic Calcium Ion Concentration with a Plate Reader Fluorimeter in Cells Expressing Recombinant Human B1 or B2 Receptors
Chinese hamster ovary (CHO) cells stably expressing recombinant human B1 (CHO-B1, Euroscreen) or B2 (CHO-B2, Perkin-Elmer) receptors were cultured in Dulbecco's Modified Eagle's Medium (DMEM) containing 10% Fetal Calf Serum (FCS), 100 U/ml penicillin, 0.1 mg/ml streptomycin, 0.25 μg/ml amphotericin B, 1% Minimum Essential Medium Eagle (MEM), non essential amino acid solution, […], 1% pyruvate (for the B2 cell line). Cells were kept at 37° C. in a humidified incubator in an atmosphere of 5% CO2/95% air and were passaged 1:4 three times a week. Cells were plated at 1.5-2.5×10^4 cell/well on standard 96-well microplates, measurements of cytosolic calcium ion concentration ([Ca^2+]i) were carried out 1-2 days after cell plating.
Measurements of [Ca^2+]i were carried out on CHO-B1 and CHO-B2 cells stably expressing human B1 and B2 receptors, respectively. Cells were grown in standard 96-well microplates and before the measurement were loaded with a fluorescent Ca^2+-sensitive dye, fluo-4/AM (2 μM): after removing the culture medium the dye was added to the cells (dissolved in assay buffer: 145 mM NaCl, 5 mM KCl, 2 mM MgCl2, 2 mM CaCl2, 10 mM HEPES, 20 mM D-glucose, 2 mM probenecid, 100 μl/well) and cells were incubated at 37° C. in a humidified incubator in an atmosphere of 5% CO2/95% air for 40-120 min. To stop dye loading cells were washed twice with assay buffer. After washing, various concentrations of the test compounds (diluted in extracellular medium from a DMSO stock solution, final DMSO concentration was <0.1%) or buffer were added to each well depending on the experimental setup. After incubation at 37° C. for 20-25 min. baseline and agonist-evoked changes of [Ca^2+]i were measured column by column with a plate reader fluorimeter (Fluoroskan Ascent, Labsystems). Excitation and detection of emission was carried out from the bottom of the plate. Filters used for Fluo-4: excitation filter—485 nm, emission filter—538 nm. The whole measurement process was performed at 37° C. and was controlled by custom software Inhibitory potency of the test compounds was assessed by measuring the reduction in the agonist-evoked [Ca^2+]i-elevation in the presence of different concentrations of the compounds. The agonists were LysDABK for CHO-B1, and bradykinin for CHO-B2 cells. Agonists were applied at an EC80 concentration, the EC80-values were derived from daily determined dose-response curves. Fluorescence data were expressed as ΔF/F (fluorescence change normalized to baseline). All treatments on a single plate were measured in multiple wells. Data from all wells with the same treatment were averaged and the average values were used for analysis. Inhibitory potency of a compound at a single concentration point was expressed as percent inhibition of the control agonist response. Sigmoidal concentration-inhibition curves were fitted to the data (derived from at least three independent experiments) and IC50-values were determined as the concentration that produces half of the maximal inhibition caused by the compound.

[2] = target: T2, human recombinant bradykinin B1 receptor (Homo sapiens, UniProt P46663); assay: Human recombinant bradykinin B1 receptor binding; settings: CHO cell membranes, [3H]-[Des-Arg10] Kallidin radioligand; read-out: B1 binding
T2 construct: host or cells: CHO cells
T2 sequence (P46663 1-353): T1 sequence (P46663 1-353)
Protocol: 1. Human Recombinant Bradykinin B1 Receptor Binding
Binding assays were carried out on human recombinant bradykinin) receptors (expressed in CHO cells) according to the Euroscreen Technical Data Sheet (Cat.No.:ES-091). 20 μg protein/tube was incubated with [3,4-prolyl-3,4-^3H(N)]-[Des-Arg^10] Kallidin as radioligand. Non specific binding was determined in the presence of 10 μM Lys-des-Arg^9-Bradykinin. The final incubation volume was 250 μl. Samples were incubated for 15 min. at 25° C. then were rapidly vacuum filtered through GF/B filters presoaked for at least 1 h in 0.5% PEI. Radioactivity was determined by liquid scintillation spectroscopy.

pIC50 [1]: > 7.70
pKi [2]: > 7.70
SMILES: O=C(CNC(=O)c1ccc(S(=O)(=O)Nc2ccccc2Oc2ccc(Cl)cc2Cl)cc1)NCC1CCNCC1 [Example 1, 4-[2-(2,4-Dichloro-phenoxy)-phenylsulfamoyl]-N-{[(Piperidin-4-ylmethyl)-carbamoyl]-methyl}-benzamide hydrochloride]
